For assay [1], the target named is T1, NLRP3 (Homo sapiens, UniProt Q96P20). Nature of the assay: THP-1 cells pyroptosis assay. Format: cell-based. On the set-up: Seed THP-1 cells (25,000 cells/well) containing 1.0 μg/ml LPS in 40 μl of RPMI medium; host or cells: THP-1 cells, LPS-primed, nigericin-stimulated. Particulars: THP-1 cells with 1.0 μg/ml LPS, compound 3 hours, nigericin 5 μM 1 hr, resazurin readout. On the procedure:
THP-1 cells (ATCC #TIB-202) were grown in RPMI containing L-glutamine (Gibco #11835) supplemented with 1 mM sodium pyruvate (Sigma #S8636) and penicillin (100 units/ml)/streptomycin (0.1 mg/ml) (Sigma #P4333) in 10% Fetal Bovine Serum (FBS) (Sigma #F0804). The cells were routinely passaged and grown to confluency (˜10^6 cells/ml). On the day of the experiment, THP-1 cells were harvested and resuspended into RPMI medium (without FBS). The cells were then counted and viability (>90%) checked by Trypan blue (Sigma #T8154). Appropriate dilutions were made to give a concentration of 625,000 cells/ml. To this diluted cell solution was added LPS (Sigma #L4524) to give a 1 μg/ml Final Assay Concentration (FAC). 40 μl of the final preparation was aliquoted into each well of a 96-well plate. The plate thus prepared was used for compound screening.
The following method step-by-step assay was followed for compound screening. • Seed THP-1 cells (25,000 cells/well) containing 1.0 μg/ml LPS in 40 μl of RPMI medium (without FBS) in 96-well, black walled, clear bottom cell culture plates coated with poly-D-lysine (VWR #734-0317) • Add 5 μl compound (8 points half-log dilution, with 10 μM top dose) or vehicle (DMSO 0.1% FAC) to the appropriate wells • Incubate for 3 hours at 37° C., 5% CO2 • Add 5 μl nigericin (Sigma #N7143) (FAC 5 μM) to all wells • Incubate for 1 hr at 37° C., 5% CO2 • At the end of the incubation period, spin plates at 300×g for 3 mins and remove supernatant • Then add 50 μl of resazurin (Sigma #R7017) (FAC 100 μM resazurin in RPMI medium without FBS) and incubate plates for a further 1-2 hours at 37° C. and 5% CO2 • Plates were read in an Envision reader at Ex 560 nm and Em 590 nm • IC50 data is fitted to a non-linear regression equation (log inhibitor vs response-variable slope 4-parameters)

Assay [2] has as its target T1, NLRP3. In words: Human whole blood IL-1β release assay. Format: cell-based. Particulars: human whole blood with 1 μg/ml LPS, compound 3 hours, nigericin 10 μM 1 hr, IL-1β by AlphaLisa. As for the experimental part: For systemic delivery, the ability to inhibit NLRP3 when the compounds are present within the bloodstream is of great importance. For this reason, the NLRP3 inhibitory activity of a number of compounds in human whole blood was investigated in accordance with the following protocol. • Human whole blood in Li-heparin tubes was obtained from healthy donors from a volunteer donor panel. • Plate out 80 μl of whole blood containing 1 μg/ml of LPS in 96-well, clear bottom cell culture plate (Corning #3585) • Add 10 μl compound (8 points half-log dilution with 10 μM top dose) or vehicle (DMSO 0.1% FAC) to the appropriate wells • Incubate for 3 hours at 37° C., 5% CO2 • Add 10 μl nigericin (Sigma #N7143) (10 μM FAC) to all wells • Incubate for 1 hr at 37° C., 5% CO2 • At the end of the incubation period, spin plates at 300×g for 5 mins to pellet cells and remove 20 μl of supernatant and add to 96-well v-bottom plates for IL-1β analysis (note: these plates containing the supernatants can be stored at −80° C. to be analysed at a later date) • IL-1β was measured according to the manufacturer protocol (Perkin Elmer-AlphaLisa IL-1 Kit AL220F-5000) • IC50 data is fitted to a non-linear regression equation (log inhibitor vs response-variable slope 4-parameters)

T1 sequence (Q96P20 whole entry): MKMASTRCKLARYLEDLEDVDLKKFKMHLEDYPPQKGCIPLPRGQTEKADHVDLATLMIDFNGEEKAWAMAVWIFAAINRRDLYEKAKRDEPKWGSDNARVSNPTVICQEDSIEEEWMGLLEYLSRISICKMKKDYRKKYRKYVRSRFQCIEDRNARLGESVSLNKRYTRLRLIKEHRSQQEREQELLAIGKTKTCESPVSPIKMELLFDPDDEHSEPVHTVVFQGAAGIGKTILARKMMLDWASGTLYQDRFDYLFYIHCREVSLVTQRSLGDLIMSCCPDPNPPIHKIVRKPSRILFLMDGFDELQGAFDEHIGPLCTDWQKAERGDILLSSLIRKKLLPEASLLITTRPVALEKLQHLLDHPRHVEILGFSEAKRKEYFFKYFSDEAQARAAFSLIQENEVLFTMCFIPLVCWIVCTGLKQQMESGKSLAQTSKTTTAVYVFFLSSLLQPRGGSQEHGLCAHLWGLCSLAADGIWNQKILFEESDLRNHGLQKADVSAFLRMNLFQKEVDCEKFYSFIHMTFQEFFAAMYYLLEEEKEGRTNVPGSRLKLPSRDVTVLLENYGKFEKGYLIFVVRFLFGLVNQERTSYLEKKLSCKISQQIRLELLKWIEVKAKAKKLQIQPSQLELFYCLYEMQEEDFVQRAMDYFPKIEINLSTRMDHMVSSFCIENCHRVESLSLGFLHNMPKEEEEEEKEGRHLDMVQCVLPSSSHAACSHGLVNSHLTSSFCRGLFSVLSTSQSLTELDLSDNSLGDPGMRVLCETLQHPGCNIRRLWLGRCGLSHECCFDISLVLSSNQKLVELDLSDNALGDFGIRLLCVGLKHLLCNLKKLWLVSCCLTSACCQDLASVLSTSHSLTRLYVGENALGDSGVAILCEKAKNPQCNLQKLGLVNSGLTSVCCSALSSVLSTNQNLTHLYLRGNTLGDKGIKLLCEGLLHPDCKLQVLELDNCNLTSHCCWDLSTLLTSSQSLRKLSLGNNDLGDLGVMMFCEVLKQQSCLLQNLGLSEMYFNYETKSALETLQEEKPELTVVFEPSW

As to `Cc1cc(Cl)cc(O)c1-c1ccc2oc(N3CCc4ccncc4C3)nc2n1` [Example 15, 5-Chloro-2-[2-(3,4-dihydro-1H-2,7-naphthyridin-2-yl)oxazolo[4,5-b]pyridin-5-yl]-3-methyl-phenol], the IC50 in assay [1] was 10.5 nM; in assay [2], 173 nM.
`Cc1cc(C#N)cc(O)c1-c1ccc2oc(N3CCc4ncncc4C3)nc2n1` [Example 17, 4-[2-(7,8-Dihydro-5H-pyrido[4,3-d]pyrimidin-6-yl)oxazolo[4,5-b]pyridin-5-yl]-3-hydroxy-5-methyl-benzonitrile]: the values for the IC50 in assay [1] and in assay [2] were 34.9 nM and 225 nM, respectively.
On to `Cc1cc(C(F)(F)F)cc(O)c1-c1ccc2oc(N3Cc4cncnc4C3)nc2n1` [Example 18, 2-[2-(5,7-Dihydropyrrolo[3,4-d]pyrimidin-6-yl)oxazolo[4,5-b]pyridin-5-yl]-3-methyl-5-(trifluoromethyl)phenol], for which the IC50 in assay [1] was 6.9 nM; in assay [2], 2350 nM.
Consider `Cc1cc(C(F)(F)F)cc(O)c1-c1ccc2oc(N3CCc4cc(=O)[nH]cc4C3)nc2n1` [Example 19, 7-[5-[2-Hydroxy-6-methyl-4-(trifluoromethyl)phenyl]oxazolo[4,5-b]pyridin-2-yl]-2,5,6,8-tetrahydro-2,7-naphthyridin-3-one], for which the IC50 turned out to be 11.1 nM in assay [1] and 962 nM in assay [2].
As to `Cc1cc(C(F)(F)F)cc(O)c1-c1ccc2oc(N3Cc4ccc(=O)[nH]c4C3)nc2n1` [Example 20, 6-[5-[2-Hydroxy-6-methyl-4-(trifluoromethyl)phenyl]oxazolo[4,5-b]pyridin-2-yl]-5,7-dihydro-1H-pyrrolo[3,4-b]pyridin-2-one], the values for the IC50 in assay [1] and in assay [2] were 4.2 nM and 1450 nM, respectively.
On the same counts, the results for `Cc1cc(C(F)(F)F)cc(O)c1-c1ccc2oc(N3Cc4ccc(=O)n(C)c4C3)nc2n1` [Example 21, 6-[5-[2-Hydroxy-6-methyl-4-(trifluoromethyl)phenyl]oxazolo[4,5-b]pyridin-2-yl]-1-methyl-5,7-dihydropyrrolo[3,4-b]pyridin-2-one] are 22.3 nM and 1960 nM.
`Cc1cc(C(F)(F)F)cc(O)c1-c1ccc2oc(N3Cc4cc(=O)n(C)nc4C3)nc2n1` [Example 22, 6-[5-[2-Hydroxy-6-methyl-4-(trifluoromethyl)phenyl]oxazolo[4,5-b]pyridin-2-yl]-2-methyl-5,7-dihydropyrrolo[3,4-c]pyridazin-3-one]: the IC50 is 20.7 nM in assay [1] and no less than 10000 nM in assay [2].
The matching figures for `Cc1cc(C(F)(F)F)cc(O)c1-c1ccc2oc(N3CCc4ncncc4C3)nc2n1` [Example 24, 2-[2-(7,8-Dihydro-5H-pyrido[4,3-d]pyrimidin-6-yl)oxazolo[4,5-b]pyridin-5-yl]-3-methyl-5-(trifluoromethyl)phenol]: 23.6 nM and 192 nM.
Regarding `Cc1cc(Cl)cc(O)c1-c1ccc2oc(N3CCc4n[nH]cc4C3)nc2n1` [Example 25, 5-Chloro-3-methyl-2-[2-(2,4,6,7-tetrahydropyrazolo[4,3-c]pyridin-5-yl)oxazolo[4,5-b]pyridin-5-yl]phenol], the figures for the IC50 in assay [1] and in assay [2] were 25.6 nM and 142 nM, respectively.
With `Cc1cc(C(F)F)cc(O)c1-c1ccc2oc(N3CCc4ncncc4C3)nc2n1` [Example 26, 5-(Difluoromethyl)-2-[2-(7,8-dihydro-5H-pyrido[4,3-d]pyrimidin-6-yl)oxazolo[4,5-b]pyridin-5-yl]-3-methyl-phenol], the results for the IC50 in assay [1] and in assay [2] were 46.7 nM and 166 nM, respectively.
As for `Cc1cc(Cl)cc(O)c1-c1ccc2oc(N3CCc4cc(=O)[nH]cc4C3)nc2n1` [Example 27, 7-[5-(4-Chloro-2-hydroxy-6-methyl-phenyl)oxazolo[4,5-b]pyridin-2-yl]-2,5,6,8-tetrahydro-2,7-naphthyridin-3-one], the IC50 turned out to be 52.2 nM in assay [1] and 423 nM in assay [2].
For `Cc1cc(Cl)cc(O)c1-c1cnc2oc(N3Cc4ccncc4C3)nc2n1` [Example 29, 5-Chloro-2-[2-(1,3-dihydropyrrolo[3,4-c]pyridin-2-yl)oxazolo[4,5-b]pyrazin-5-yl]-3-methyl-phenol; formic acid], the IC50 in assay [1] amounted to 2.1 nM; in assay [2], 35.9 nM.
On the same counts, the results for `OCc1cc(Cl)cc(O)c1-c1cnc2oc(N3Cc4ccncc4C3)nc2n1` [Example 30, 5-Chloro-2-[2-(1,3-dihydropyrrolo[3,4-c]pyridin-2-yl)oxazolo[4,5-b]pyrazin-5-yl]-3-(hydroxymethyl)phenol] are 24.8 nM and 326 nM.
As to `Cc1cc(Cl)cc(O)c1-c1ccc2oc(N3CCc4ncncc4C3)nc2n1` [Example 31, 5-Chloro-2-[2-(7,8-dihydro-5H-pyrido[4,3-d]pyrimidin-6-yl)oxazolo[4,5-b]pyridin-5-yl]-3-methyl-phenol], the IC50 in assay [1] was determined as 17.9 nM; in assay [2] it was 345 nM.
`COc1ncc2c(n1)CCN(c1nc3nc(-c4c(C)cc(Cl)cc4O)ccc3o1)C2` [Example 32, 5-Chloro-2-[2-(2-methoxy-7,8-dihydro-5H-pyrido[4,3-d]pyrimidin-6-yl)oxazolo[4,5-b]pyridin-5-yl]-3-methyl-phenol]: the IC50 in assay [1] amounted to 24.9 nM; in assay [2] it was 285 nM.
Take `Cc1cc(Cl)cc(O)c1-c1ccc2oc(N3CCc4[nH]c(=O)ncc4C3)nc2n1` [Example 36, 6-[5-(4-Chloro-2-hydroxy-6-methyl-phenyl)oxazolo[4,5-b]pyridin-2-yl]-1,5,7,8-tetrahydropyrido[4,3-d]pyrimidin-2-one]: the IC50 in assay [1] came to 46.3 nM; in assay [2], 168 nM.
Regarding `Cc1cc(Cl)cc(O)c1-c1ccc2oc(N3CCc4[nH]c(=O)ccc4C3)nc2n1` [Example 37, 6-[5-(4-Chloro-2-hydroxy-6-methyl-phenyl)oxazolo[4,5-b]pyridin-2-yl]-1,5,7,8-tetrahydro-1,6-naphthyridin-2-one], the results for the IC50 in assay [1] and in assay [2] were 71.1 nM and 676 nM, respectively.
`Cc1cc(Cl)cc(O)c1-c1ccc2oc(N3Cc4cc(=O)[nH]nc4C3)nc2n1` [Example 38, 6-[5-(4-chloro-2-hydroxy-6-methyl-phenyl)oxazolo[4,5-b]pyridin-2-yl]-5,7-dihydro-2H-pyrrolo[3,4-c]pyridazin-3-one]: the IC50 was found to be 22 nM in assay [1] and 168 nM in assay [2].
On the same counts, the results for `Cc1cc(C(F)(F)F)cc(O)c1-c1cnc2oc(N3Cc4cnc(O)cc4C3)nc2n1` [Example 43, 2-[5-[2-Hydroxy-6-methyl-4-(trifluoromethyl)phenyl]oxazolo[4,5-b]pyrazin-2-yl]-1,3-dihydropyrrolo[3,4-c]pyridin-6-ol; 2,2,2-trifluoroacetic acid] are 1.7 nM and 128 nM.

The record behind these values is patent US20260092076A1, “NOVEL COMPOUNDS” (Hoffmann-La Roche Inc., priority 2023, published 2026).
